≈ marks a conversion by molar mass, not a printed value.

Common to all, as to assay type: cell-based
The subject of test [1] is Streptococcus mutans. In words: Minimum-Bactericidal-Concentrations (MBC), plating on blood agar. The following applies: kills at least 99.9% of initial inoculum.
Test [2] has as its system Porphyromonas gingivalis. Described as above. The following applies: kills at least 99.9% of initial inoculum. As for the experimental part:
To evaluate the effectiveness of Magnolia Bark Extract, in vitro tests were conducted with three subgingival plaque bacteria associated with oral malodor. The Minimum-Inhibitory-Concentrations (MIC) study protocol is as follows. Chlorhexidine was used as a positive control and sterile water was used as a negative control. Menthol and Tween 80 was used as a solvent for Magnolia Bark Extract. Tween 80 is the common name for Polysorbate 80. Ninety-six-well microtiter plates were used for this study. Each well contained 5×10^5 colony forming units/ml of bacteria, serially diluted agents and bacterial growth medium. All bacterial cultures were incubated at 37° C. and stationary. Bacterial growth was estimated spectrophotometrically at 660 nm, after 48 hours. […] The Minimum-Bactericidal-Concentrations (MBC) were determined using the 96-well microtiter plate serial dilutions as described above for MIC studies. Serial dilutions of cultures in wells showing no visible growth were performed and 10 microliters of culture were plated in triplicate on blood agar plates. Viable colonies were scored after incubation of the plates for 48 hours at 37° C. For each test bacterium, the number of colony forming units/ml (CFU/ml) was determined in the initial inoculum. The MBC was defined as the lowest concentration of a test compound that killed at least 99.9% of the cells present in the initial inoculum.

The test system of test [3] is Porphyromonas gingivalis. In words: Minimum-Inhibitory-Concentrations (MIC) study, 96-well microtiter plates. The note with it: 48 hours, 37° C., turbidity at 660 nm. The method, then: (§1) To evaluate the effectiveness of Magnolia Bark Extract, in vitro tests were conducted with three subgingival plaque bacteria associated with oral malodor. The Minimum-Inhibitory-Concentrations (MIC) study protocol is as follows. Chlorhexidine was used as a positive control and sterile water was used as a negative control. Menthol and Tween 80 was used as a solvent for Magnolia Bark Extract. Tween 80 is the common name for Polysorbate 80. Ninety-six-well microtiter plates were used for this study. Each well contained 5×10^5 colony forming units/ml of bacteria, serially diluted agents and bacterial growth medium. All bacterial cultures were incubated at 37° C. and stationary. Bacterial growth was estimated spectrophotometrically at 660 nm, after 48 hours.

Test [4] concerns Fusobacterium nucleatum. Described as above. The note with it: 48 hours, 37° C., turbidity at 660 nm. The method, then: as §1
For test [5], the system named is Streptococcus mutans. The description is as above. The following applies: 48 hours, 37° C., turbidity at 660 nm. As for the experimental part:
as §1

Test [6] deals with S. mutans. In words: MIC for growth of S. mutans (comparative testing). The following applies: Streptococcus mutans, BHI with 0.5% sucrose, 48 h. As for the experimental part: (§2) Further to the results described above, the effect of Magnolia Bark Extract on biofilm formation and removal was compared with different herbal and natural ingredients. Comparative testing was performed using green tea extract, Oolong tea extract, Licorice, and Magnolia Bark Extract. The comparative testing included determining the solubility in water, ethanol, water:ethanol mixtures and other solvents (for example, Tween in water), MIC for growth of S. mutans, MIC for formation of S. mutans biofilm in 96-well plates, and the effect on detachment of S. mutans biofilm. To further evaluate the effect on S. mutans biofilm formation, 96-well microtiter plates were used. Each well contained S. mutans (5×10^6 CFU/ml), and was serially diluted with test compounds and growth medium (brain heart infusion broth (BHI) with 0.5% sucrose). The controls included inoculated growth medium without test compounds. All plates were incubated at 37° C. under aerobic condition with growth estimated spectrophotometrically (660 nm) after 48 h using a microtiter plate reader. Then, the supernatant containing unattached cells was removed from each wells by aspiration, the attached biofilm mass was dissolved with 200 μl 1 N NaOH and the optical density was measured at 660 nm using the microtiter plate reader. Chlorhexidine (40 μg/ml) was used as a positive control.

The subject of test [7] is S. mutans biofilm. In words: MIC for formation of S. mutans biofilm in 96-well plates. The note with it: BHI with 0.5% sucrose, 48 h, attached biofilm OD 660 nm. The method, then: as §2
For test [8], the system named is S. mutans biofilm. Kind of test: Effect on detachment of S. mutans biofilm. The following applies: pre-formed 48 h S. mutans biofilm, 30 min exposure. The method, then: Further to the results described above, the effect of Magnolia Bark Extract on biofilm formation and removal was compared with different herbal and natural ingredients. Comparative testing was performed using green tea extract, Oolong tea extract, Licorice, and Magnolia Bark Extract. The comparative testing included determining the solubility in water, ethanol, water:ethanol mixtures and other solvents (for example, Tween in water), MIC for growth of S. mutans, MIC for formation of S. mutans biofilm in 96-well plates, and the effect on detachment of S. mutans biofilm. To further evaluate the effect on S. mutans biofilm detachment, sterile 96-well microtiter plates were used where each well was inoculated with S. mutans (5×10^6 CFU/ml), growth medium (BHI supplemented with 0.5% sucrose), and incubated at 37° C. under aerobic condition for biofilm formation. After 48 hours, the non-attached supernatant was aspirated and serially diluted. […] After 30 min, the supernatant was aspirated from wells and the biofilm remaining after treatment was dissolved in 200 μl 1N NaOH, and quantitated at 660 nm using the plate reader. […] If detachment of the biofilm by action of the test compounds occurred, the spectrophotometric absorbance or optical density (OD) should show a decrease compared to the non-treated control.

Test [9] has as its system Fusobacterium nucleatum. Kind of test: Minimum-Bactericidal-Concentrations (MBC), plating on blood agar. The note with it: kills at least 99.9% of initial inoculum.
For test [10], the system named is bacteria from freshly-collected stimulated whole saliva. Kind of test: Mixed culture saliva biofilm on saliva-coated hydroxyapatite discs, timed exposure to actives. As for the experimental part:
Although useful to show the comparative effect of Magnolia Bark Extract on biofilm formation and MIC growth, the foregoing test procedure may not effectively mimic the in vivo exposure of a confectionary composition such as a pressed tablet to a developing plaque biofilm. In an in vivo situation, the active could be exposed to the plaque for a defined period of time at a set frequency (for example, for 5 minutes, three times a day). Therefore, a series of comparative experiments were conducted to mimic the in vivo use of potential active ingredients. To perform the tests the saliva compositions listed below in Tables 2 and 3 were prepared. A mixed culture system that utilizes the bacteria from freshly-collected stimulated whole saliva was used. Saliva cell pellets were used to inoculate saliva-coated hydroxyapatite (S-HA) discs. The discs were placed in 24-well cell culture plates and incubated for up to 3 days. Biofilms were exposed to actives on days 2 and 3 (starting at 18 hours), and quantified on day 4. The number of bacteria was determined by spectrophotometric absorbance or optical density (OD) at 600 nm. The five phases of the experiment were: pellicle formation; bacterial attachment; biofilm growth; exposure to actives; and bacterial enumeration. To form the pellicles, HA Discs were ultrasonically washed in deionized water and air-dried, then autoclaved. The discs were placed in a 24-well plate with 1 ml 50% sterile saliva (1 part sterile whole saliva: 1 part saliva buffer, filter sterilize after preparation) for 2 hours on slow agitation at room temperature. The saliva was suctioned and then the discs were transferred to fresh wells for bacterial attachment. To form the biofilms, the bacterial suspension was removed, and the discs were transferred to fresh wells. One ml of supplemented saliva medium was added and the plate was placed in the incubator for overnight incubation and for the duration of the experiment (up to 72 hours). A stock solution of 1% Magnolia Bark Extract in 60% ethanol was prepared. Magnolia Bark Extract samples were prepared having a concentration range of 125, 250, 500, and 1000 μg/ml (ppm) in a Phosphate-Buffered-Saline (PBS) solution, where the negative control was PBS and the positive control was CHX having a concentration of 0.12%. […] One ml quantities of active ingredients and controls were placed into fresh wells, and the discs were transferred to these wells for 5 minutes. The chlorhexidine control exposure was one minute, two times a day to mimic the standard mouth-rinse procedure. The exposure to active ingredient was carried out at 8:00 AM, 12:00 and 4:00 PM. After the timed exposure, the solution was removed and the discs washed twice with PBS and then transferred to fresh medium. For some experiments, the medium used during the day was TSB (Tryptic Soy Broth) with a 50 μl 40% sterile sucrose solution added to each well (to give a 2% sucrose solution). The medium was not replaced after the mid-day exposure. After overnight incubation (day 2), discs were exposed to controls and actives. On day 3 the biofilms were again exposed to tests and controls. On day 4 the discs were removed from the medium, the medium pH was measured to obtain an indication of metabolic activity, and the discs were placed into tubes with 2.5 ml PBS, vortexed for 20 sec, and then placed into the ultrasonic bath for another 20 sec. The suspension was transferred into cuvettes and the bacterial cell density determined by OD measurements at 600 nm. To evaluate the effect of Magnolia Bark Extract in combination with the surface active agent, sodium lauryl sulfate, five active ingredient solutions were prepared using the procedures described above. […] Also, the MBE solutions were prepared to have a concentration of 500 ppm. Sodium lauryl sulfate was added to two of the Magnolia Bark Extract solutions to obtain SLS concentrations of 0.05% and 0.1% in the Magnolia Bark Extract solutions. […]

A further test has as its system incubated saliva. Kind of test: MIC of surface active agents and emulsifiers on incubated saliva, two-fold serial dilution. The note with it: for MIC (ppm) / MIC: 24 hours at 37° C.; for germ-kill efficacy in words: summary of Table 9. As for the experimental part:
(§3) To evaluate the germ-kill efficacy and synergist effect when two or more germ-kill actives are combined, testing was performed to determine the ratio of MBE to surface active agent. The germ-kill active and/or surface active agent were dissolved in ethanol or sterile water to give an initial concentration 0.1% to 1%. The solution was diluted with a nutrient broth to give an initial concentration of 0.05% to 0.5%, which was then serially diluted two-fold so that each subsequent dilution contained 50% of the compound concentration of the previous dilution while maintaining a constant level of nutrients for each dilution. These dilutions were inoculated with representative oral microorganisms, or incubated saliva, and incubated for 24 hours at 37° C. For each surface active agent, the lowest dilution that was not turbid was registered as the MIC. The MBC was determined by transferring 10 microliter of liquid from non-turbid tubes to fresh growth media and incubated for 48 hours.

Test [11] deals with S. mutans. Kind of test: MIC and fractional inhibitory index of combinations on S. mutans. The note with it: 24 hours at 37° C. The method, then: as §3, with “hours. […] (1) where an FIC value of less than 1.0 is synergistic, an FIC between 1.0 and 2.0 is additive, and an FIC greater than 2.0 is antagonistic.” for “hours.”
The mark [12] stands for this setting: CHX 0.12%, one minute, two times a day, day 4.
Where [13] appears, read: repeat experiment with SLS, CHX 0.1% (1000 ppm).
Where [14] appears, read: repeat experiment with SLS, SLS 1000 ppm.

As to `[H]/N=C(\N/C(=N/[H])NCCCCCCNC(=N)NC(=N)Nc1ccc(Cl)cc1)Nc1ccc(Cl)cc1` [CHX, chlorhexidine], the minimal bactericidal concentration (MBC) in the test with Streptococcus mutans [1], in the test on Porphyromonas gingivalis [2] and with Fusobacterium nucleatum [9] was 1.25 µg/mL (≈ 2.47 µM) in each case. The MIC with Porphyromonas gingivalis [3] is 1.25 µg/mL (≈ 2.47 µM); with Fusobacterium nucleatum [4], 1.25 µg/mL (≈ 2.47 µM); against Streptococcus mutans [5], 1.25 µg/mL (≈ 2.47 µM); with S. mutans [6], 2.5 µg/mL (≈ 4.95 µM). In the test with S. mutans biofilm [7], the MIC biofilm formation came out at 2.5 µg/mL (≈ 4.95 µM). Moreover, the MIC biofilm detachment against S. mutans biofilm [8] was greater than 10 µg/mL. The “% OD reduction at 600 nm compared to PBS control” value in test [10] (setting [12]) stood at 84%. Further, the “pH of the medium (metabolic activity)” value in [10] (setting [12]) and in test [10] (setting [13]) was 8.8 throughout. Moreover, the “% OD reduction at 600 nm” value in test [10] (setting [13]) came to 94%.
Take `N=C(NCCCCCCNC(=N)NC(=N)Nc1ccc(Cl)cc1)NC(=N)Nc1ccc(Cl)cc1.O=C(O)[C@H](O)[C@@H](O)[C@H](O)[C@H](O)CO.O=C(O)[C@H](O)[C@@H](O)[C@H](O)[C@H](O)CO` [Chlorhexidine gluconate, reference compound]: the “MIC (ppm)” value in the test on incubated saliva is recorded as 2 ppm. The MIC/ppm with S. mutans [11] was determined as 2 ppm.
For the compound `CCCCCCCCCCCCOS(=O)(=O)[O-].[Na+]` [SLS, sodium lauryl sulfate], in the test on incubated saliva, the MIC is 50 µg/mL and the “germ-kill efficacy in words” value is listed as “good germ-kill surface active agents”. Further, the MIC/ppm with S. mutans [11] stood at 100 ppm. For the same compound, in test [10] (setting [14]), the “% OD reduction at 600 nm” value came to 61% and the “pH of the medium (metabolic activity)” value is reported as 5.7.
Consider `CCCCCCCCCCCC(=O)OCCOCCOCCOCCOCCOCCOCCOCCOCCOCCOCCOCCOCCOCCOCCOCCOCCOCCOCCOCCOCC(OCCOCCOCCOCCOCCOCCOCCOCCOCCOCCOCCOCCOCCOCCOCCOCCOCCOCCOCCOCCO)C1OCC(OCCOCCOCCOCCOCCOCCOCCOCCOCCOCCOCCOCCOCCOCCOCCOCCOCCOCCOCCOCCO)C1OCCOCCOCCOCCOCCOCCOCCOCCOCCOCCOCCOCCOCCOCCOCCOCCOCCOCCOCCOCCO` (stereo not shown) [Tween 20, Polysorbate 20], for which, in the test with incubated saliva, the minimum inhibitory concentration (MIC) is greater than 1000 µg/mL and the “germ-kill efficacy in words” value is “weak or non germ-kill actives”.
Consider Cocamidopropyl Betaine, for which the “germ-kill efficacy in words” value with incubated saliva is recorded as “good germ-kill surface active agents”.
Sodium Brasslate: in the test with incubated saliva, the “MIC (ppm)” value worked out at 500 ppm and the “germ-kill efficacy in words” value is reported as “moderate germ-kill efficacy”.
As to Sodium Stearoyl Lactylate, in the test on incubated saliva, the “MIC (ppm)” value is listed as greater than 3000 ppm and the “germ-kill efficacy in words” value is recorded as “weak or non germ-kill actives”.
In the same order, the values of Sucrose Distearate are greater than 500 ppm and “weak or non germ-kill actives”.
Taken in the same sequence, the figures for Sucrose Stearate were greater than 500 ppm and “weak or non germ-kill actives”.

Source of the values: patent US7470442B2, “Confectionary compositions with magnolia bark extract” (GIC Innovations Company, priority 2005, dated 2008).
